From the NIST ThermoML archive (doi:10.1021/je900557u)
Numbers after ± are expanded uncertainties. Blank lines part the entries; values can stand above or below the molecule they belong to.

Columns and labels:
[1] = 298.15 K; 101.33 kPa; Liquid; Vibrating tube method
[2] = refractive index (Na D-line) (dimensionless); conditions: 298.15 K; 101.33 kPa; Liquid; refractometer
[3] = xn = mol fraction of the nth substance listed; conditions: 298.15 K, 101 kPa, Liquid, Vibrating tube method

mass density [1]: 1219.61 ± 0.42 kg/m3
refractive index [2]: 1.50591 ± 0.00024
SMILES: CCOS(=O)(=O)[O-].CC[n+]1cccc(C)c1 [1-ethyl-3-methylpyridinium ethylsulfate]

mass density [1]: 862.51 ± 0.11 kg/m3
refractive index [2]: 1.49304 ± 0.00014
SMILES: CCc1ccccc1 [ethylbenzene]

mass density ([3]; x2 = 0): 862.51 ± 0.11 kg/m3
mass density ([3]; x2 = 0.0903): 843.13 ± 0.28 kg/m3
mass density ([3]; x2 = 0.1776): 824.35 ± 0.29 kg/m3
mass density ([3]; x2 = 0.2675): 805.21 ± 0.29 kg/m3
mass density ([3]; x2 = 0.3777): 781.93 ± 0.29 kg/m3
mass density ([3]; x2 = 0.4931): 757.81 ± 0.3 kg/m3
mass density ([3]; x2 = 0.5929): 737.22 ± 0.31 kg/m3
mass density ([3]; x2 = 0.6947): 716.43 ± 0.32 kg/m3
mass density ([3]; x2 = 0.7984): 695.45 ± 0.33 kg/m3
mass density ([3]; x2 = 0.8942): 676.28 ± 0.34 kg/m3
SMILES: CCc1ccccc1 [ethylbenzene] + CCCCCC

SMILES: CCCCCC [hexane]
mass density [1]: 655.19 ± 0.26 kg/m3
refractive index [2]: 1.37234 ± 0.00024

SMILES: CCCCCC [hexane] + CCc1ccccc1
mass density ([3]; x1 = 1): 655.19 ± 0.25 kg/m3

SMILES: CCCCCC [hexane] + Cc1ccccc1
mass density ([3]; x1 = 0.083): 841.73 ± 0.31 kg/m3
mass density ([3]; x1 = 0.1713): 820.75 ± 0.3 kg/m3
mass density ([3]; x1 = 0.298): 791.72 ± 0.3 kg/m3
mass density ([3]; x1 = 0.396): 770.3 ± 0.3 kg/m3
mass density ([3]; x1 = 0.5011): 748.44 ± 0.3 kg/m3
mass density ([3]; x1 = 0.5949): 729.53 ± 0.3 kg/m3
mass density ([3]; x1 = 0.6973): 709.61 ± 0.3 kg/m3
mass density ([3]; x1 = 0.7961): 691.1 ± 0.31 kg/m3
mass density ([3]; x1 = 0.8946): 673.45 ± 0.32 kg/m3
mass density ([3]; x1 = 1): 655.19 ± 0.25 kg/m3

SMILES: Cc1ccccc1 [toluene]
mass density [1]: 862.17 ± 0.11 kg/m3
refractive index [2]: 1.49399 ± 0.00014

SMILES: Cc1ccccc1 [toluene] + CCCCCC
mass density ([3]; x2 = 0): 862.17 ± 0.11 kg/m3
